According to ChEMBL document CHEMBL2034968, “Discovery of novel urea-based hepatitis C protease inhibitors with high potency against protease-inhibitor-resistant mutants” (J Med Chem, 2012):

Key:
Hepatitis C virus [1] = assay: Antiviral activity against Hepatitis C virus subtype 1b by stable replicon assay; type: functional, organism-based, Hepacivirus hominis; settings: genotype 1b
[2] = Maximum drug absorption in rat at 5 mg/kg, po; type: ADME, organism-based; design: dose 5 mg/kg, route oral; settings: in vivo, read-out: Drug absorption
[3] = (§1) AUC in rat at 1 mg/kg, iv; type: ADME, organism-based, Plasma; design: dose 1 mg/kg, route intravenous; settings: plasma
Hepatitis C virus [4] = assay: Antiviral activity against Hepatitis C virus subtype 1b harboring protease A156S mutant by transient replicon assay; type: functional, organism-based, Hepacivirus hominis; settings: genotype 1b
[5] = (§2) Oral bioavailability in rat at 5 mg/kg; type: ADME, organism-based; settings: in vivo
Hepatitis C virus [6] = assay: Antiviral activity against Hepatitis C virus subtype 1b harboring protease A156T mutant by transient replicon assay; type: functional, organism-based, Hepacivirus hominis; settings: genotype 1b
Hepatitis C virus [7] = assay: Antiviral activity against wild type Hepatitis C virus subtype 1b by transient replicon assay; type: functional, organism-based, Hepacivirus hominis; settings: genotype 1b
Hepatitis C virus [8] = assay: Resistance index, ratio of EC50 for Hepatitis C virus subtype 1b harboring protease D168A mutant to EC50 for wild type Hepatitis C virus subtype 1b; type: functional, Hepacivirus hominis, genotype 1b
Rattus norvegicus [9] = assay: Hepatic clearance in rat at 1 mg/kg, iv; type: ADME, organism-based, Liver; design: dose 1 mg/kg, route intravenous; settings: in vivo
Hepatitis C virus [10] = assay: Antiviral activity against Hepatitis C virus subtype 1b harboring protease A156V mutant by transient replicon assay; type: functional, organism-based, Hepacivirus hominis; settings: genotype 1b
Hepatitis C virus [11] = assay: Resistance index, ratio of EC50 for Hepatitis C virus subtype 1b harboring protease R155K mutant to EC50 for wild type Hepatitis C virus subtype 1b; type: functional, Hepacivirus hominis, genotype 1b
Hepatitis C virus [12] = assay: Antiviral activity against Hepatitis C virus subtype 1b harboring protease D168V mutant by transient replicon assay; type: functional, organism-based, Hepacivirus hominis; settings: genotype 1b
Hepatitis C virus [13] = assay: Resistance index, ratio of EC50 for Hepatitis C virus subtype 1b harboring protease D168V mutant to EC50 for wild type Hepatitis C virus subtype 1b; type: functional, Hepacivirus hominis, genotype 1b
Hepatitis C virus [14] = assay: Antiviral activity against Hepatitis C virus subtype 1a by stable replicon assay; type: functional, organism-based, Hepacivirus hominis
[15] = Terminal half life in rat at 5 mg/kg, po; type: ADME, organism-based; design: dose 5 mg/kg, route oral; settings: in vivo, read-out: beta t1/2 (converted)
[16] = Inhibition of HCV 1a protease 1a domain; design: species or system Hepacivirus hominis
Hepatitis C virus [17] = assay: Antiviral activity against Hepatitis C virus subtype 1b harboring protease D168A mutant by transient replicon assay; type: functional, organism-based, Hepacivirus hominis; settings: genotype 1b
[18] = (§3) AUC in rat at 5 mg/kg, po; type: ADME, organism-based, Plasma; design: dose 5 mg/kg, route oral; settings: plasma
Rattus norvegicus [19] = assay: Dose normalized AUC in rat at 5 mg/kg, po; type: ADME, organism-based; design: dose 5 mg/kg, route oral; settings: in vivo
Hepatitis C virus [20] = assay: Antiviral activity against Hepatitis C virus subtype 1b harboring protease R155K mutant by transient replicon assay; type: functional, organism-based, Hepacivirus hominis; settings: genotype 1b
Hepatitis C virus [21] = assay: Ratio of EC50 for danoprevir to EC50 for compound against Hepatitis C virus subtype 1b harboring protease D168V mutant by transient replicon assay; type: functional, Hepacivirus hominis, genotype 1b
Hepatitis C virus [22] = assay: Ratio of EC50 for danoprevir to EC50 for compound against Hepatitis C virus subtype 1b harboring protease A156S mutant by transient replicon assay; type: functional, Hepacivirus hominis, genotype 1b
Rattus norvegicus [23] = assay: as §1; type: ADME, organism-based, Plasma; design: dose 1 mg/kg, route intravenous; settings: in vivo
Hepatitis C virus [24] = assay: Ratio of EC50 for TMC-435350 to EC50 for compound against Hepatitis C virus subtype 1b harboring protease D168V mutant by transient replicon assay; type: functional, Hepacivirus hominis, genotype 1b
Hepatitis C virus [25] = assay: Ratio of EC50 for TMC-435350 to EC50 for compound against Hepatitis C virus subtype 1b harboring protease A156V mutant by transient replicon assay; type: functional, Hepacivirus hominis, genotype 1b
Hepatitis C virus [26] = assay: Ratio of EC50 for danoprevir to EC50 for compound against Hepatitis C virus subtype 1b harboring protease D168A mutant by transient replicon assay; type: functional, Hepacivirus hominis, genotype 1b
Rattus norvegicus [27] = assay: as §2; type: ADME, organism-based; settings: in vivo
Hepatitis C virus [28] = assay: Ratio of EC50 for TMC-435350 to EC50 for compound against Hepatitis C virus subtype 1b harboring protease D168A mutant by transient replicon assay; type: functional, Hepacivirus hominis, genotype 1b
Hepatitis C virus [29] = assay: Ratio of EC50 for danoprevir to EC50 for compound against Hepatitis C virus subtype 1b harboring protease A156T mutant by transient replicon assay; type: functional, Hepacivirus hominis, genotype 1b
Hepatitis C virus [30] = assay: Ratio of EC50 for TMC-435350 to EC50 for compound against wild type Hepatitis C virus subtype 1b by transient replicon assay; type: functional, Hepacivirus hominis, genotype 1b
Hepatitis C virus [31] = assay: Ratio of EC50 for TMC-435350 to EC50 for compound against Hepatitis C virus subtype 1b harboring protease A156T mutant by transient replicon assay; type: functional, Hepacivirus hominis, genotype 1b
Hepatitis C virus [32] = assay: Ratio of EC50 for TMC-435350 to EC50 for compound against Hepatitis C virus subtype 1b harboring protease A156S mutant by transient replicon assay; type: functional, Hepacivirus hominis, genotype 1b
Hepatitis C virus [33] = assay: Ratio of EC50 for danoprevir to EC50 for compound against Hepatitis C virus subtype 1b harboring protease A156V mutant by transient replicon assay; type: functional, Hepacivirus hominis, genotype 1b
[34] = AUC in rat liver at 5 mg/kg, po; type: ADME, organism-based; design: dose 5 mg/kg, route oral
Hepatitis C virus [35] = assay: Ratio of EC50 for danoprevir to EC50 for compound against wild type Hepatitis C virus subtype 1b by transient replicon assay; type: functional, Hepacivirus hominis, genotype 1b
Hepatitis C virus [36] = assay: Ratio of EC50 for TMC-435350 to EC50 for compound against Hepatitis C virus subtype 1b harboring protease R155K mutant by transient replicon assay; type: functional, Hepacivirus hominis, genotype 1b
Liver = assay: Ratio of drug level in liver to plasma in rat at 5 mg/kg, po; type: ADME, organism-based; design: dose 5 mg/kg, route oral; settings: other tissue
Rattus norvegicus [37] = assay: as §3; type: ADME, organism-based, Plasma; design: dose 5 mg/kg, route oral; settings: in vivo
[38] = Terminal half life in rat liver at 5 mg/kg, po; type: ADME, organism-based; design: dose 5 mg/kg, route oral; settings: read-out: beta t1/2 (converted)
Hepatitis C virus [39] = assay: Ratio of EC50 for danoprevir to EC50 for compound against Hepatitis C virus subtype 1b harboring protease R155K mutant by transient replicon assay; type: functional, Hepacivirus hominis, genotype 1b

## COc1ccc2c(O[C@@H]3C[C@H]4C(=O)N[C@]5(C(=O)NS(=O)(=O)C6CC6)C[C@H]5/C=C\CCCCC[C@H](NC(=O)N5CCC5)C(=O)N4C3)cc(-c3nc(C(C)C)cs3)nc2c1C
Hepatitis C virus [1]
  EC50: 0.4 nM
[2]
  Fa: 7.6%
[3]
  AUC: 107 ng·h/mL
Hepatitis C virus [4]
  EC50: 0.2 nM
[5]
  bioavailability: 4.2%
Hepatitis C virus [6]
  EC50: 2 nM
Hepatitis C virus [7]
  EC50: 0.1 nM
Hepatitis C virus [8]
  Ratio EC50: <1000
Rattus norvegicus [9]
  CLH: 160.3 mL/min/kg
Hepatitis C virus [10]
  EC50: 8 nM
Hepatitis C virus [11]
  Ratio EC50: <1000
Hepatitis C virus [12]
  EC50: 97 nM
Hepatitis C virus [13]
  Ratio EC50: <1000
Hepatitis C virus [14]
  EC50: 0.8 nM
[15]
  half-life: 2.26 h
[16]
  IC50: 4 nM
Hepatitis C virus [17]
  EC50: 60 nM
[18]
  AUC: 40.5 ng·h/mL
Rattus norvegicus [19]
  AUC/dose: 0.008 kg·µg·h/mL/mg
Hepatitis C virus [20]
  EC50: 20 nM

## COc1ccc2c(O[C@@H]3C[C@H]4C(=O)N[C@]5(C(=O)NS(=O)(=O)C6CC6)C[C@H]5/C=C\CCCCC[C@H](NC(=O)N5CC(F)(F)C5)C(=O)N4C3)cc(-c3nc(C(C)C)cs3)nc2c1C
Hepatitis C virus [1]
  EC50: 0.5 nM
[2]
  Fa: 6.8%
[3]
  AUC: 203 ng·h/mL
[5]
  bioavailability: 4%
Hepatitis C virus [6]
  EC50: 1 nM
Hepatitis C virus [7]
  EC50: 0.1 nM
Hepatitis C virus [8]
  Ratio EC50: <1000
Rattus norvegicus [9]
  CLH: 91.03 mL/min/kg
Hepatitis C virus [10]
  EC50: 6 nM
Hepatitis C virus [11]
  Ratio EC50: <1000
Hepatitis C virus [12]
  EC50: 58 nM
Hepatitis C virus [13]
  Ratio EC50: <1000
Hepatitis C virus [14]
  EC50: 0.8 nM
[15]
  half-life: 0.806 h
[16]
  IC50: 2 nM
Hepatitis C virus [17]
  EC50: 15 nM
[18]
  AUC: 69 ng·h/mL
Rattus norvegicus [19]
  AUC/dose: 0.014 kg·µg·h/mL/mg
Hepatitis C virus [20]
  EC50: 14 nM

## COc1ccc2c(O[C@@H]3C[C@H]4C(=O)N[C@]5(C(=O)NS(=O)(=O)C6CC6)C[C@H]5/C=C\CCCCC[C@H](NC(=O)N5CCCCC5)C(=O)N4C3)cc(-c3nc(C(C)C)cs3)nc2c1C
Hepatitis C virus [21]
  Ratio EC50: 0.3
Hepatitis C virus [1]
  EC50: 0.5 nM
Hepatitis C virus [22]
  Ratio EC50: 21
[2]
  Fa: 20%
Rattus norvegicus [23]
  AUC: 268 ng·h/mL
Hepatitis C virus [24]
  Ratio EC50: 2
Hepatitis C virus [4]
  EC50: 0.1 nM
Hepatitis C virus [25]
  Ratio EC50: 49
Hepatitis C virus [26]
  Ratio EC50: 1
Rattus norvegicus [27]
  F: 9.4%
Hepatitis C virus [28]
  Ratio EC50: 5
Hepatitis C virus [6]
  EC50: 2 nM
Hepatitis C virus [29]
  Ratio EC50: 5
Hepatitis C virus [7]
  EC50: 0.04 nM
Hepatitis C virus [30]
  Ratio EC50: 23
Hepatitis C virus [31]
  Ratio EC50: 43
Hepatitis C virus [32]
  Ratio EC50: 3.5
Hepatitis C virus [33]
  Ratio EC50: 1
Rattus norvegicus [9]
  CLH: 83.4 mL/min/kg
Hepatitis C virus [10]
  EC50: 7 nM
Hepatitis C virus [12]
  EC50: 79 nM
Hepatitis C virus [14]
  EC50: 0.4 nM
[15]
  half-life: 1.16 h
[34]
  AUC: 308000 ng·h/mL
[16]
  IC50: 5 nM
Hepatitis C virus [35]
  Ratio EC50: 5
Hepatitis C virus [17]
  EC50: 32 nM
Hepatitis C virus [36]
  Ratio EC50: 9
Liver
  Ratio: 1158
Rattus norvegicus [37]
  AUC: 266 ng·h/mL
Rattus norvegicus [19]
  AUC/dose: 0.053 kg·µg·h/mL/mg
[38]
  half-life: 8.1 h
Hepatitis C virus [20]
  EC50: 6 nM
Hepatitis C virus [39]
  Ratio EC50: 14

## CCC[C@H](NC(=O)[C@@H]1[C@H]2CCC[C@H]2CN1C(=O)[C@@H](NC(=O)[C@@H](NC(=O)c1cnccn1)C1CCCCC1)C(C)(C)C)C(=O)C(=O)NC1CC1 [TELAPREVIR]
Hepatitis C virus [1]
  EC50: 372 nM
Hepatitis C virus [4]
  EC50: 883 nM
Hepatitis C virus [6]
  EC50: 1140 nM
Hepatitis C virus [7]
  EC50: 34 nM
Hepatitis C virus [8]
  Ratio EC50: 6
Hepatitis C virus [10]
  EC50: 1960 nM
Hepatitis C virus [11]
  Ratio EC50: 6
Hepatitis C virus [12]
  EC50: 207 nM
Hepatitis C virus [13]
  Ratio EC50: 6
Hepatitis C virus [14]
  EC50: 540 nM
[16]
  IC50: 500 nM
Hepatitis C virus [17]
  EC50: 638 nM
Hepatitis C virus [20]
  EC50: 1780 nM
